Reference: article PMC11277489, “Novel Piperazine Derivatives of Vindoline as Anticancer Agents” (International Journal of Molecular Sciences, 2024)

What was measured:
[1] = system: CCRF-CEM; assay: NCI60 one-dose screen (10 μM), Leukemia; format: cell-based; details: Homo sapiens, 10 μM, Leukemia, read-out: Growth percent rate
[2] = system: HL-60(TB); assay: NCI60 one-dose screen (10 μM), Leukemia; format: cell-based; details: Homo sapiens; 10 μM; HL-60(TB), Leukemia; read-out: Growth percent rate
[3] = system: K-562; assay: NCI60 one-dose screen (10 μM), Leukemia; format: cell-based; details: Homo sapiens, K562; 10 μM; K-562, Leukemia; read-out: Growth percent rate
[4] = system: MOLT-4; assay: NCI60 one-dose screen (10 μM), Leukemia; format: cell-based, human; details: Homo sapiens; 10 μM; MOLT-4, Leukemia; read-out: Growth percent rate
[5] = system: A549/ATCC; assay: NCI60 one-dose screen (10 μM), Non-small Cell Lung Cancer; format: cell-based; details: Homo sapiens; 10 μM; A549/ATCC, Non-small Cell Lung Cancer; read-out: Growth percent rate
[6] = system: EKVX; assay: as above; format: cell-based; details: Homo sapiens, 10 μM, Non-small Cell Lung Cancer, read-out: Growth percent rate
[7] = system: NCI-H23; assay: as above; format: cell-based; details: Homo sapiens; 10 μM; NCI-H23, Non-small Cell Lung Cancer; read-out: Growth percent rate
[8] = system: NCI-H322M; assay: as above; format: cell-based; details: Homo sapiens, 10 μM, Non-small Cell Lung Cancer, read-out: Growth percent rate
[9] = system: NCI-H460; assay: as above; format: cell-based; details: Homo sapiens; 10 μM; NCI-H460, Non-small Cell Lung Cancer; read-out: Growth percent rate
[10] = system: NCI-H522; assay: as above; format: cell-based; details: Homo sapiens; 10 μM; NCI-H522, Non-small Cell Lung Cancer; read-out: Growth percent rate
[11] = system: COLO 205; assay: NCI60 one-dose screen (10 μM), Colon Cancer; format: cell-based, human; details: for activity at 10 µM: Homo sapiens, COLO 205, Colon Cancer, read-out: Growth percent rate
[12] = system: HCC-2998; assay: NCI60 one-dose screen (10 μM), Colon Cancer; format: cell-based; details: Homo sapiens; 10 μM; HCC-2998, Colon Cancer; read-out: Growth percent rate
[13] = system: HCT-116; assay: NCI60 one-dose screen (10 μM), Colon Cancer; format: cell-based; details: Homo sapiens; 10 μM; HCT-116, Colon Cancer; read-out: Growth percent rate
[14] = system: HCT-15; assay: NCI60 one-dose screen (10 μM), Colon Cancer; format: cell-based; details: Homo sapiens; 10 μM; HCT-15, Colon Cancer; read-out: Growth percent rate
[15] = system: HT29; assay: NCI60 one-dose screen (10 μM), Colon Cancer; format: cell-based; details: Homo sapiens, HT-29; 10 μM; HT29, Colon Cancer; read-out: Growth percent rate
[16] = system: KM12; assay: NCI60 one-dose screen (10 μM), Colon Cancer; format: cell-based, human; details: Homo sapiens; 10 μM; KM12, Colon Cancer; read-out: Growth percent rate
[17] = system: SW-620; assay: NCI60 one-dose screen (10 μM), Colon Cancer; format: cell-based; details: Homo sapiens; 10 μM; SW-620, Colon Cancer; read-out: Growth percent rate
[18] = system: SF-268; assay: NCI60 one-dose screen (10 μM), CNS Cancer; format: cell-based; details: Homo sapiens; 10 μM; SF-268, CNS Cancer; read-out: Growth percent rate
[19] = system: SF-295; assay: NCI60 one-dose screen (10 μM), CNS Cancer; format: cell-based; details: Homo sapiens; 10 μM; SF-295, CNS Cancer; read-out: Growth percent rate
[20] = system: SF-539; assay: NCI60 one-dose screen (10 μM), CNS Cancer; format: cell-based, human; details: Homo sapiens; 10 μM; SF-539, CNS Cancer; read-out: Growth percent rate
[21] = system: SNB-19; assay: NCI60 one-dose screen (10 μM), CNS Cancer; format: cell-based; details: Homo sapiens; 10 μM; SNB-19, CNS Cancer; read-out: Growth percent rate
[22] = system: SNB-75; assay: NCI60 one-dose screen (10 μM), CNS Cancer; format: cell-based, human; details: Homo sapiens; 10 μM; SNB-75, CNS Cancer; read-out: Growth percent rate
[23] = system: LOX IMVI; assay: NCI60 one-dose screen (10 μM), Melanoma; format: cell-based, human; details: Homo sapiens; 10 μM; LOX IMVI, Melanoma; read-out: Growth percent rate
[24] = system: MALME-3M; assay: NCI60 one-dose screen (10 μM), Melanoma; format: cell-based; details: Homo sapiens; 10 μM; MALME-3M, Melanoma; read-out: Growth percent rate
[25] = system: M14; assay: NCI60 one-dose screen (10 μM), Melanoma; format: cell-based; details: Homo sapiens; 10 μM; M14, Melanoma; read-out: Growth percent rate
[26] = system: MDA-MB-435; assay: NCI60 one-dose screen (10 μM), Melanoma; format: cell-based; details: Homo sapiens; 10 μM; MDA-MB-435, Melanoma; read-out: Growth percent rate
[27] = system: SK-MEL-2; assay: NCI60 one-dose screen (10 μM), Melanoma; format: cell-based; details: Homo sapiens; 10 μM; SK-MEL-2, Melanoma; read-out: Growth percent rate
[28] = system: SK-MEL-28; assay: NCI60 one-dose screen (10 μM), Melanoma; format: cell-based; details: Homo sapiens; 10 μM; SK-MEL-28, Melanoma; read-out: Growth percent rate
[29] = system: SK-MEL-5; assay: NCI60 one-dose screen (10 μM), Melanoma; format: cell-based, human; details: for activity at 10 µM: Homo sapiens, SK-MEL-5, Melanoma, read-out: Growth percent rate
[30] = system: UACC-257; assay: NCI60 one-dose screen (10 μM), Melanoma; format: cell-based; details: Homo sapiens; 10 μM; UACC-257, Melanoma; read-out: Growth percent rate
[31] = system: IGROV1; assay: NCI60 one-dose screen (10 μM), Ovarian Cancer; format: cell-based; details: Homo sapiens, IGROV-1; 10 μM; IGROV1, Ovarian Cancer; read-out: Growth percent rate
[32] = system: OVCAR-3; assay: NCI60 one-dose screen (10 μM), Ovarian Cancer; format: cell-based; details: Homo sapiens; 10 μM; OVCAR-3, Ovarian Cancer; read-out: Growth percent rate
[33] = system: OVCAR-4; assay: NCI60 one-dose screen (10 μM), Ovarian Cancer; format: cell-based; details: Homo sapiens; 10 μM; OVCAR-4, Ovarian Cancer; read-out: Growth percent rate
[34] = system: OVCAR-8; assay: NCI60 one-dose screen (10 μM), Ovarian Cancer; format: cell-based; details: Homo sapiens; 10 μM; OVCAR-8, Ovarian Cancer; read-out: Growth percent rate
[35] = system: 786–0; assay: NCI60 one-dose screen (10 μM), Renal Cancer; format: cell-based; details: Homo sapiens; 10 μM; 786-0, Renal Cancer; read-out: Growth percent rate
[36] = system: ACHN; assay: NCI60 one-dose screen (10 μM), Renal Cancer; format: cell-based; details: Homo sapiens, 10 μM, Renal Cancer, read-out: Growth percent rate
[37] = system: CAKI-1; assay: NCI60 one-dose screen (10 μM), Renal Cancer; format: cell-based; details: Homo sapiens; 10 μM; CAKI-1, Renal Cancer; read-out: Growth percent rate
[38] = system: RXF 393; assay: NCI60 one-dose screen (10 μM), Renal Cancer; format: cell-based, human; details: Homo sapiens; 10 μM; RXF 393, Renal Cancer; read-out: Growth percent rate
[39] = system: SN12C; assay: NCI60 one-dose screen (10 μM), Renal Cancer; format: cell-based; details: Homo sapiens, 10 μM, Renal Cancer, read-out: Growth percent rate
[40] = system: DU-145; assay: NCI60 one-dose screen (10 μM), Prostate Cancer; format: cell-based; details: Homo sapiens; 10 μM; DU-145, Prostate Cancer; read-out: Growth percent rate
[41] = system: MCF7; assay: NCI60 one-dose screen (10 μM), Breast Cancer; format: cell-based; details: Homo sapiens; 10 μM; MCF7, Breast Cancer; read-out: Growth percent rate
[42] = system: 60 human tumor cell lines (NCI60); assay: NCI60 one-dose screen (10 μM), whole panel; format: cell-based; details: for activity at 10 µM: mean over 60 human cancer cell lines, read-out: Growth percent rate, Mean

CCC12C=CCN3CCC4(c5ccc(OC)cc5N(C)C4C(O)(C(=O)OC)C1OC(=O)CCC(=O)O)C32 (stereo not drawn) [Compound 15, 17-(O-3-carboxypropanoyl)vindoline]
activity at 10 µM [1]: 105% | activity at 10 µM [2]: 114% | activity at 10 µM [3]: 90.5% | activity at 10 µM [4]: 106% | activity at 10 µM [5]: 94.3% | activity at 10 µM [6]: 87.4% | activity at 10 µM [7]: 92.5% | activity at 10 µM [8]: 73.9% | activity at 10 µM [9]: 97.4% | activity at 10 µM [10]: 84.2% | activity at 10 µM [11]: 93.6% | activity at 10 µM [12]: 71% | activity at 10 µM [13]: 98.6% | activity at 10 µM [14]: 98.4% | activity at 10 µM [15]: 89.9% | activity at 10 µM [16]: 82.8% | activity at 10 µM [17]: 102% | activity at 10 µM [18]: 87.2% | activity at 10 µM [19]: 113% | activity at 10 µM [20]: 92.9% | activity at 10 µM [21]: 94.9% | activity at 10 µM [22]: 53.4% | activity at 10 µM [23]: 107% | activity at 10 µM [24]: 90.3% | activity at 10 µM [25]: 96.5% | activity at 10 µM [26]: 110% | activity at 10 µM [27]: 100% | activity at 10 µM [28]: 86.7% | activity at 10 µM [29]: 96.8% | activity at 10 µM [30]: 91.5% | activity at 10 µM [31]: 90% | activity at 10 µM [32]: 74.9% | activity at 10 µM [33]: 80.2% | activity at 10 µM [34]: 91.8% | activity at 10 µM [35]: 98.1% | activity at 10 µM [36]: 102% | activity at 10 µM [37]: 95.5% | activity at 10 µM [38]: 96.6% | activity at 10 µM [39]: 92.9% | activity at 10 µM [40]: 98.1% | activity at 10 µM [41]: 68.2% | antiproliferative effect (in words) ([42]; 10 μM one-dose, NCI60): a notable antiproliferative effect was not shown | activity at 10 µM [42]: 91.7%

CC[C@]12C=CCN3CC[C@@]4(c5ccc(OC)cc5N(C)[C@H]4[C@@](O)(C(=O)OC)[C@@H]1OC(=O)CCC(=O)N1CCN(c4ccc(C(F)(F)F)cc4)CC1)[C@@H]32 [Compound 28]
activity at 10 µM [1]: 4.4% | activity at 10 µM [2]: 4.32% | activity at 10 µM [3]: 16.9% | activity at 10 µM [4]: 18.7% | activity at 10 µM [5]: 13.6% | activity at 10 µM [6]: 20.9% | activity at 10 µM [7]: 8.32% | activity at 10 µM [8]: 43.7% | activity at 10 µM [9]: 1.83% | activity at 10 µM [10]: -9.16% | growth percent rate ([11]; 10 μM one-dose, COLO-205 colon cancer, negative = lethality): −90.33% | activity at 10 µM [11]: -90.3% | activity at 10 µM [12]: -75.2% | activity at 10 µM [13]: 29.4% | activity at 10 µM [14]: 6.71% | activity at 10 µM [15]: -50.4% | activity at 10 µM [16]: 3.83% | activity at 10 µM [17]: 20.7% | activity at 10 µM [18]: 13.1% | activity at 10 µM [19]: 1.73% | activity at 10 µM [20]: 8.28% | activity at 10 µM [21]: 16.2% | activity at 10 µM [22]: 26.2% | activity at 10 µM [23]: -75.8% | activity at 10 µM [24]: 2.45% | activity at 10 µM [25]: -66.8% | activity at 10 µM [26]: 5.7% | activity at 10 µM [27]: -84.7% | activity at 10 µM [28]: 15% | growth percent rate ([29]; 10 μM one-dose, SK-MEL-5 melanoma, negative = lethality): −92.46% | activity at 10 µM [29]: -92.5% | activity at 10 µM [30]: 19.5% | activity at 10 µM [31]: -42.3% | activity at 10 µM [32]: -2.22% | activity at 10 µM [33]: 6.5% | activity at 10 µM [34]: 10.7% | activity at 10 µM [35]: 20.7% | activity at 10 µM [36]: -3.87% | activity at 10 µM [37]: -10.2% | activity at 10 µM [38]: -12.9% | activity at 10 µM [39]: 9.74% | activity at 10 µM [40]: 15.4% | activity at 10 µM [41]: 3.97% | activity at 10 µM [42]: -3.07%
